Where a name gives a salt, the structure may show the parent alone.
What was measured:
[1] = in vivo; type: in vivo; settings: rat, in vivo, iv, ratio between the dose inducing bradycardia 20 and the effective anti-anginal dose 50; read-out: Therapeutic index
From the text: (§1) Furthermore, tolerability has been tested in the same experimental conditions in which it has been performed the pharmacological study in vivo.
(§2) Tolerability has been referred as effective dose to reduce heart rate of 20%. Therapeutic index has been determined as ratio between the dose inducing bradycardia 20 and the effective anti-anginal dose 50.

[2] = test system: anesthetized rat; test: in vivo; type: in vivo; settings: for Tolerability: Heart rate (-20%): i.v., compounds solubilized in 40% glyceril formal; for Therapeutic index: ratio between the dose inducing bradycardia 20 and the effective anti-anginal dose 50
From the text: as §1, §2

[3] = test system: anesthetized rat; test: coronary dilating activity (coronary spasm induced by Vasopressin, T wave in E.C.G.) in anesthetized rat; type: in vivo; settings: T wave restored in 50% of the animals within 2 minutes; for ED50: Rattus norvegicus, iv, 2 min
From the text: The evaluation of the coronary dilating activity has been performed with the method of O. Nieschultz, et al. (Arzneim. Forsch. 5, 680, 1955).

[4] = test system: isolated rabbit aorta (vascular smooth muscle); test: calcium antagonist activity on isolated rabbit aorta (CaCl2-induced contraction)
From the text: Isolated rabbit aorta: ratio between the CaCl2 con-

[5] = test system: anesthetized rat; test: antiarrhythmic activity against calcium chloride-induced arrhythmia after intravenous administration in anesthetized rat; type: in vivo; settings: for ED50: Rattus norvegicus, iv, ten minutes before calcium chloride, read-out: ED50 (dose effective to antagonize the appearance of arrythmia in the 50% of the treated animals)
Description: The evaluation of the antiarrhythmic activity has been performed in the anesthetized rat with the method of M. Malinov et al. (Am. J. Physiol. 172, 743-746, 1953).
Arrythmia has been induced by administering (0.25 ml in 30 seconds) a saline solution containing 15% of calcium chloride into the jugular vein.
In these experimental conditions arrythmia occurs in the 90% of the animals. The compounds have been administered intravenously ten minutes before calcium chloride. The antiarrythmic activity has been referred as dose effective to antagonize the appearance of arrythmia in the 50% of the treated animals (ED50).

[6] = read-out: Coronary dilating activity ED50, i.v. 60 seconds after Vasopressin
[7] = concentration in perfused liquid 10^-5 M
[8] = concentration in perfused liquid 10^-6 M
[9] = i.v. 60 seconds after Vasopressin
[10] = i.v. 60 seconds after Vasopressin, read-out: Coronary dilating activity ED50

Structure (SMILES) | selectivity ratio [1] | Tolerability: Heart rate (-20%) [2] [nmols/kg] | ED50 [3, 6] [µmol/kg] | ratio between the CaCl2 concentration producing the 50% contraction in presence or in absence of various compounds [4, 7] | ratio between the CaCl2 concentration producing the 50% contraction in presence or in absence of various compounds [4, 8] | other results
COc1ccc(CCC(C)N[C@@H](CO)[C@@H](O)c2ccc(SC)cc2)cc1OC.Cl (relative stereo) [Z. 1434, (1S,2S)-1-(4-methylthiophenyl)-2-[1-methyl-3-(3,4-dimethoxyphenyl)-propylamino]-1,3propanediol hydrochloride] | 93 | 42 | 0.00045 | 21 | 5 | –
CSc1ccc([C@H](O)[C@H](CO)NCC(c2ccccc2)c2ccccc2)cc1 [Z. 1415, (1S,2S)-1-(4-methylthiophenyl)-2-(2,2-diphenylethylamino)-1,3-propanediol] | 17 | 49 | 0.0029 | 27 | 6 | –
COc1ccc(CCN(C)CCCC(C#N)(c2ccc(OC)c(OC)c2)C(C)C)cc1OC (centres unmarked) [Verapamil, reference compound] | – | – | 0.00015 | – | – | ED50 [5]: 6 µmol/kg; number of protected rats/total number ([5]; dose 4.4 μmols/Kg i.v.): 2/8; number of protected rats/total number ([5]; dose 7.7 μmols/Kg i.v.): 5/8; number of protected rats/total number ([5]; dose 11 μmols/Kg i.v.): 6/8
CSc1ccc([C@H](O)[C@H](CO)N2CCN(C(c3ccccc3)c3ccccc3)CC2)cc1 [Z. 1439] | 7 | 23 | 0.0033 | 24 | 4 | –
CSc1ccc([C@H](O)[C@H](CO)NC(C)c2ccccc2)cc1 (relative stereo) [Z. 1413, (1S,2S,1'S*)-1-(4-methylthiophenyl)-2-(1-methylbenzylamino)-1,3-propanediol] | – | 230 | – | – | – | Therapeutic index [2]: 51; Coronary dilating activity ED50 [3, 9]: 4.5 nmols/kg/i.v.
CSc1ccc([C@H](O)[C@H](CO)N(C)C(C)CCc2ccccc2)cc1 (some centres unmarked) [Z. 1428] | – | – | – | 30 | 2 | –
CSc1ccc([C@H](O)[C@H](CO)NCC(C)c2ccccc2)cc1.Cl (stereo partly drawn) [Z. 1409, (1S,2S)-1-(4-methylthiophenyl)-2-(2-phenylpropylamino)-1,3-propanediol hydrochloride] | 87 | 73 | 0.00084 | 12 | 4 | ED50 [5]: 43 µmol/kg; number of protected rats/total number ([5]; dose 8 μmols/Kg i.v.): 0/8; number of protected rats/total number ([5]; dose 16 μmols/Kg i.v.): 2/8; number of protected rats/total number ([5]; dose 24 μmols/Kg i.v.): 3/8; number of protected rats/total number ([5]; dose 48 μmols/Kg i.v.): 5/8
CC(Cc1ccccc1)NCCC(c1ccccc1)c1ccccc1 (centres unmarked) [Prenylamine, reference compound] | 11 | 19 | 0.00184 | 62 | 12 | –
Fc1ccc(C(c2ccc(F)cc2)N2CCN(C/C=C/c3ccccc3)CC2)cc1 [Flunarizine, reference compound] | – | – | – | 16 | 1 | ED50 [3, 10]: 0.00048 µmol/kg
CSc1ccc([C@H](O)[C@H](CO)NCCC(c2ccccc2)c2ccccc2)cc1 [Z. 1382, (1S,2S)-1-(4-methylthiophenyl)-2-(3,3-diphenylpropylamino)-1,3-propanediol acid maleate] | 20 | 17 | 0.00084 | 255 | 20 | ED50 [5]: 19 µmol/kg; number of protected rats/total number ([5]; dose 7.6 μmols/Kg i.v.): 1/8; number of protected rats/total number ([5]; dose 13.4 μmols/Kg i.v.): 4/8; number of protected rats/total number ([5]; dose 20 μmols/Kg i.v.): 3/8; number of protected rats/total number ([5]; dose 27 μmols/Kg i.v.): 5/8
CSc1ccc([C@H](O)[C@H](CO)NC(C)CCc2ccccc2)cc1.Cl (relative stereo) [Z. 1411, (1S,2S)-1-(4-methylthiophenyl)-2-(1-methyl-3-phenylpropylamino)-1,3-propanediol hydrochloride] | 44 | 44 | 0.001 | 15 | 10 | ED50 [5]: 13 µmol/kg; number of protected rats/total number ([5]; dose 8 μmols/Kg i.v.): 0/8; number of protected rats/total number ([5]; dose 12 μmols/Kg i.v.): 4/8; number of protected rats/total number ([5]; dose 16 μmols/Kg i.v.): 6/8
CSc1ccc([C@H](O)[C@H](CO)NC(C)COc2ccccc2)cc1 (some centres unmarked) [Z. 1393] | 9 | 35 | 0.0038 | – | – | –
CSc1ccc([C@H](O)[C@H](CO)NC(C)COc2ccccc2)cc1 (some centres unmarked) [Z. 1394] | – | – | – | 7 | 3 | –
CSc1ccc([C@@H](O)[C@@H](CO)NC(C)COc2ccccc2)cc1 (some centres unmarked) [Z. 1407] | 17 | 53 | 0.0032 | – | – | –
CSc1ccc([C@H](O)[C@H](CO)NC(C)c2ccccc2)cc1 (some centres unmarked) [Z. 1414] | – | 100 | 0.004 | – | – | Therapeutic index [2]: 25
CSc1ccc([C@@H](O)[C@H](CO)NCCC(c2ccccc2)c2ccccc2)cc1 [Z. 1373] | 7 | 23 | 0.0034 | 86 | 9 | –
COC(=O)C1=C(C)NC(C)=C(C(=O)OC)C1c1ccccc1[N+](=O)[O-] [Nifedipine, reference compound] | – | – | – | – | – | ED50 [3, 10]: 0.00057 µmol/kg
CSc1ccc([C@@H](O)[C@@H](CO)NC(C)COc2ccccc2)cc1 (some centres unmarked) [Z. 1408] | – | 76 | – | – | – | Therapeutic index [2]: 21; Coronary dilating activity ED50 [3, 9]: 3.7 nmols/kg/i.v.; ED50 [5]: 35 µmol/kg; number of protected rats/total number ([5]; dose 16 μmols/Kg i.v.): 1/8; number of protected rats/total number ([5]; dose 32 μmols/Kg i.v.): 4/8; number of protected rats/total number ([5]; dose 56 μmols/Kg i.v.): 6/8

— US4638003A, “1-(4-alkylthiophenyl)-2-(substituted or unsubstituted piperazine-1-yl)-1,3-propanediol, pharmaceutical compositions containing them useful as antiarrhythmic and vasodilating agents” (Zambon S.p.A., priority 1983, dated 1987)
